Measured values as given in patent publication US20250120928A1 (University of Maryland, Baltimore, priority 2021, published 2025).

Experiments:
[1] = tested on: T cells (CD3+) from splenocytes; assay: Splenocyte apoptosis and cell death by AV/PI flow cytometry, T cells; format: cell-based; details: concentrations up to 30 μM
BMMØs [2] = assay: Western blot analysis of acetyl-histone H3 and acetyl-α-tubulin; details: 10 μM, unstimulated BMMØs, 4 and 9 hours
Method: Day 8 BMMØs were seeded at 1×10^6 cells/well in sterile 6-well plates incubated at 37° C. and 5% CO2 overnight to allow for cell adherence. […] Cells were lysed with Halt™ Protease Inhibitor Cocktail (Cat #78429) (Thermo Fisher, Waltham MA) in RIPA Buffer (Cat #R0278) (Sigma-Aldrich, St. Louis, MO) and scraped with a cell scraper (VWR, Radnor, PA). Lysates were sonicated with a ⅛^th needle tip using a Cole-Parmer 500-Watt Ultrasonic Homogenizer at 40% amplitude for 10 seconds on ice. Lysates were then centrifuged at 4° C. for 20 minutes at 12,000×g. The supernatant was collected and frozen at −80° C. until ready for western blot analysis. Protein lysates were produced using 50/50 sample to 2×SDS/PAGE sample buffer. Proteins were then separated by SDS/PAGE and immunoblotted using Histone H3 (D1H2) XP, Acetyl-Histone H3 (lys9/Lys14), α-Tubulin (11H10), Acetyl-α-Tubulin (Lys40) (D20G3) XP and β-Actin as primary antibodies. ECL was used for detection.
Day 8 BMMØs were seeded at 1×10^6 cells/well in sterile 6-well plates incubated at 37° C. and 5% CO2 overnight to allow for cell adherence. […] Cells were lysed with Halt™ Protease Inhibitor Cocktail (Cat #78429) (Thermo Fisher, Waltham MA) in RIPA Buffer (Cat #R0278) (Sigma-Aldrich, St. Louis, MO) and scraped with a cell scraper (VWR, Radnor, PA). Lysates were sonicated with a ⅛th needle tip using a Cole-Parmer 500-Watt Ultrasonic Homogenizer at 40% amplitude for 10 seconds on ice. Lysates were then centrifuged at 4° C. for 20 minutes at 12,000×g. The supernatant was collected and frozen at −80° C. until ready for western blot analysis. Protein lysates were produced using 50/50 sample to 2×SDS/PAGE sample buffer. Proteins were then separated by SDS/PAGE and immunoblotted using Histone H3 (D1H2) XP, Acetyl-Histone H3 (Lys9/Lys14), α-Tubulin (11H10), Acetyl-α-Tubulin (Lys40) (D20G3) XP and β-Actin as primary antibodies. ECL was used for detection.

[3] = tested on: LPS-stimulated bone marrow macrophages (BMMØ); assay: BMMØ cytokine secretion following LPS stimulation (ELISA, Luminex); format: cell-based, C57BL/6J mice
Method: Three hours later, cells were stimulated with 100 ng/mL LPS. After 48 hours, cell culture supernatants were collected and analyzed by enzyme-linked immunosorbent assays (ELISA) (BioLegend, San Diego, CA) to measure murine IL-6 and TNFα. MAGPIX Luminex bead-based multiplex ELISA (Thermo Fisher Scientific, Waltham, MA) measured for 7 various cytokines and chemokines, and data were analyzed using the Luminex xPONENT software (Millipore) as per manufacturer's instructions. The 7-plex panel included murine IFNβ, IL-10, IL-6, IL-1β, MCP-1 (CCL2), TNFα, and GROα (CXCL1).
After 48 hours, cell culture supernatants were collected and analyzed by enzyme-linked immunosorbent assays (ELISA) (BioLegend, San Diego, CA) to measure murine IL-6 and TNFα. MAGPIX Luminex bead-based multiplex ELISA (Thermo Fisher Scientific, Waltham, MA) measured for 7 various cytokines and chemokines, and data were analyzed using the Luminex xPONENT software (Milli-pore) as per manufacturer's instructions. The 7-plex panel included murine IFNβ, IL-10, TL-6, IL-1β, MCP-1 (CCL2), TNFα, and GROα (CXCL1).

[4] = tested on: LPS-induced endotoxemia mouse model; assay: Plasma cytokine analysis in the LPS-induced endotoxemia mouse model; format: in vivo, male C57BL/6J mice; details: 50 mg/kg i.p. 3 hours before 20 mg/kg LPS i.p.; blood 3 hours post-LPS
Method: Terminal cardiac blood draws from the left ventricle occurred 3 hours post LPS injections using a 25 g needle and 1 mL syringe into an EDTA coated lavender blood collection tube (BD Medical, Franklin Lakes, NJ). Blood samples were centrifuged at 1000×g for 10 minutes within 30 minutes of collection. Plasma was extracted and diluted 10,000-fold for ELISA IL-6 measurement and diluted 10-fold for TNFα measurements.
Terminal cardiac blood draws from the left ventricle occurred 3 hours post LPS injections using a 25 g needle and 1 mL syringe into an EDTA coated lavender blood collection tubes (BD Medical, Franklin Lakes, NJ). Blood samples were centrifuged at 1000×g for 10 minutes within 30 minutes of collection. Plasma was extracted and diluted 10,000-fold for ELISA IL-6 measurement and diluted 10-fold for TNFα measurements. MAGPIX Luminex bead-based multiplex ELISA (Thermo Fisher Scientific, Waltham, MA) of mouse plasma (diluted 100-fold) measured for 26 various cytokines and chemokines and data was analyzed using the Luminex xPONENT software (Millipore) as per manufacturer's instructions. The 26-plex panel include murine IL-1β, IL-2, IL-4, IL-5, IL-6, IL-9, IL-10, IL-12p70, IL-13, IL-17A (CTLA-8), IL-18, IL-22, IL-23, IL-27, GM-CSF, IFNγ, TNFα, MCP-1 (CCL2), MIP-1α (CCL3), MIP-10 (CCL4), RANTES (CCL5), MCP-3 (CCL7), Eotaxin (CCL11), GROα (CXCL1), MIP-2a (CXCL2), and IP-10 (CXCL10).

BMMØs [5] = format: cell-based
Method: (§1) Three hours later, cells were stimulated with 100 ng/mL LPS. After 48 hours, cells were lifted using Versene and washed with cold PBS supplemented with 1% FBS and 0.4% 0.5 M EDTA (Quality Biological, Gaithersburg, MD). FcR blocking was performed with purified anti-mouse CD16/32 antibody (#101301) (Biolegend, San Diego, CA) prior to staining with Annexin V-FITC and propidium iodide kit (#640914) (BioLegend, San Diego, CA) for apoptosis and cell death. Cell staining was conducted according to BioLegend protocols for flow cytometry. Flow cytometry data were collected using a Becton Dickinson LSR II or Becton Dickinson Canto II flow cytometer. Flow plots and data processing was done using FCS Express 7 Flow Cytometry De Novo Software (De Novo, Glendale, CA).
as §1, with “After” for “Three hours later, cells were stimulated with 100 ng/mL LPS. After”

[6] = tested on: B cells (B220+) isolated from splenocytes; assay: Splenocyte apoptosis and cell death by AV/PI flow cytometry, B cells; format: cell-based
Method: Splenocytes were isolated from spleens as previously described. Briefly, 5-12-week C57BL/6J female mice were euthanized and the spleen was isolated. The spleen was processed into single-cell suspensions using a 40 μm cell strainer and flushed with cold PBS supplemented with 1% FBS and 0.4% 0.5 M EDTA (Quality Biological, Gaithersburg, MD). Erythrocytes were lysed with ACK lysis buffer (Quality Biological, Gaithersburg, MD). […] Subsequently, splenocytes were stimulated with 100 ng/mL LPS for 24 hours. Splenocytes were then washed with cold PBS supplemented with 1% FBS and 0.4% 0.5 M EDTA and FcR blocked, as previously mentioned. Splenocytes were then stained with purified anti-mouse PE/Cyanine7 CD45R/B220 antibody (#103222) (BioLegend, San Diego, CA) for the B cell population. SAHA and SAHA-OH apoptosis and cell death were then assessed using the FITC-AV Apoptosis Detection Kit with PI via flow cytometry, as previously mentioned. Flow cytometry data were collected using a Cytex Aurora flow cytometer. Flow plots and data processing was done using FCS Express 7 Flow Cytometry De Novo Software (De Novo, Glendale, CA).

spleen and liver = assay: Hematoxylin and eosin (H&E) histology of spleen and liver, LPS-induced endotoxemia mice; format: in vivo, male C57BL/6J mice; details: 50 mg/kg i.p. 3 hours before 20 mg/kg LPS; 3 hours post-LPS
Method: The differences in tissue architecture of liver and spleen were assessed using the same cohort of mice as the cytokine analysis at 3 hours post-LPS administration. Prior to tissue harvest, whole-body perfusion was performed post-cardiac blood draw by slowly flushing 10 mL of 37° C. PBS through the left ventricle of the heart while a cut in the right atrium allowed for the flow of blood. The liver and spleen were harvested, placed into tissue cassettes (VWR, Radnor, PA), and fixed overnight in 10% buffered formalin (Sigma-Aldrich, St. Louis, MO). The following day, the organs were paraffin-embedded and sectioned into 5 μm slices. Slides were stained for H&E to define histological architecture using standard procedures.
The differences in tissue architecture of liver and spleens were assessed at 3 hours post-LPS administration. Prior to tissue harvest, whole body perfusion was performed by slowly flushing 10 mL of 37° C. PBS through the left ventricle of the heart while a cut in the right atrium allowed for the flow of blood. The liver and spleen were harvested, placed into tissue cassettes, and fixed overnight in 10% buffered formalin. The following day, the organs were paraffin embedded and sectioned in 5 μm slices. Slides were stained for H&E to define histological architecture using standard procedures.

HDAC1, 2, 3 = details: comparison value for Tubastatin A; read-out: IC50 against HDAC1, 2, 3; cited from earlier work
[7] = 0-30 μM for 3 hours, then LPS 100 ng/mL 48 hours, ELISA

In the case of `O=C(CCCCCCC(=O)Nc1ccccc1)NO` [SAHA, N^1-hydroxy-N^8-phenyloctanediamide, reference compound], the “toxicity for the T cell population” value [1] is reported as “minimal toxicity”, the “acetylation of α-tubulin” value (BMMØs [2]) is reported as “similarly resulted in the acetylation” and the IL-6 cytokine secretion [3, 7] is reported as “concentration-dependent reduction”. The TNFα cytokine secretion [3, 7] was “concentration-dependent reduction”, the MCP-1 cytokine secretions ([3]; 10 μM, 3 hours before 48-hour LPS) was “non-significantly affected” and the “secretion of IL-10” value ([3]; 10 μM, 3 hours before 48-hour LPS, Luminex, SAHA compared to SAHA-OH) was “increased secretion”. The “reduction of plasma IL-6” value [4] was “about 50%”, the “reduction of plasma TNFα” value [4] was “about 50%” and the “apoptosis (AV+/PI−) over concentration” value (BMMØs [5]; 0-30 μM) was “apoptosis induction”. For the same molecule, the “viability (AV−/PI−) over concentration” value (BMMØs [5]; 0-30 μM) was “concentration-dependent viability reduction”, the “apoptosis (AV+/PI−)” value (BMMØs [5]; 10 μM, 48 hours) was 96.8% and the “cellular viability (AV−/PI−)” value (BMMØs [5]; 10 μM, 48 hours) was 3.1%. For the same molecule, the “toxicity profile for the B cell population” value ([6]; 0-30 μM) was “concentration-dependent toxicity profiles”, the “B cell death (AV+/PI+)” value ([6]; 10 μM, 24 hours) was 54.8% and the “B cell viability (AV−/PI−)” value ([6]; 10 μM, 24 hours) was 9.5%. The “spleen tissue architecture (H&E)” value (spleen and liver) was “moderate histological disorganization”.

In the case of `CN1CCc2c(c3ccccc3n2Cc2ccc(C(=O)NO)cc2)C1` [Tubastatin A], the IC50 (HDAC1, 2, 3) is listed as […].
